Laboratory results: patent US20080175888A1, “Combination Therapy Comprising Actinidia and Steroids and Uses Thereof” (priority 2005, published 2008)

Test system: production of IL-13 and IFN-γ by OVA-stimulated mouse splenocytes
Assay: Cytokine production in OVA-stimulated splenocyte cultures, ELISA (Example 3)
Type: cell-based
Conditions: 3 days exposure in vitro, FIG. 5A/5B
Protocol: The purpose of this study was to assess the ability of A. arguta extracts that originate from plant parts other than the fruit, or from alternative preparations of the fruit (i.e., other than the extracts described in U.S. Patent Publication No. 2004/0037909, supra), to modulate cytokine production (IL-13 and IFNγ) in splenocyte cultures derived from ovalbumin-sensitized mice, using ELISA analysis. The following samples (prepared as described above) were tested: water extracts of the stem, root, and bark of A. arguta, prepared as described in Example 1; “boiled” fresh fruit preparations; the fruit juice concentrate prepared as described in Example 1; FD001 (large scale equivalent of PG102T) prepared as described in Example 1; FD001 powder prepared as described in Example 1 (used for clinical trials described below); a room temperature water extract of the dried A. arguta fruit; the EtOAc extract prepared as described in Example 1; and aqueous remainder, also described in Example 1. In addition, the activity of three known immunosuppressive compounds, cyclosporin, dexamethasone, and quercetin were evaluated as controls.
Preparation of the splenocytes was performed in a manner identical to that described above for Example 2. […]
The cytokine levels in the culture supernatants from all treatment and control wells were determined by ELISA assay. […]

In the case of O=c1c(O)c(-c2ccc(O)c(O)c2)oc2cc(O)cc(O)c12 [quercetin], the “concentration of potent activity (suppression of IL-13 and IFN-γ)” value is reported as 1 to 25 µM.
